The target in one assay is HDAC5 (Homo sapiens, UniProt Q9UQL6). Briefly: Global quantitative proteomics, change in protein abundance in Kelly cells. It is filed as cell-based. Also on record: endogenous in cells; host or cells: Kelly cells. The conditions noted are these: 5 μM, 5-hour treatment, vs DMSO, FIG. 3. The protocol:
(§1) Cells were washed once with phosphate-buffered saline (PBS), harvested with CellstripperTM (Corning®), washed two additional times with PBS and snap frozen in liquid nitrogen. […] Proteins were precipitated using methanol/chloroform in Donovan et al., Elife 7:e38430 (2018). The precipitated protein was resuspended in 4 M Urea, 50 mM HEPES pH 7.4, followed by dilution to 1 M urea with the addition of 200 mM EPPS, pH 8. Proteins were first digested with LysC (1:50: enzyme:protein) for 12 hours at room temperature. The LysC digestion was diluted to 0.5 M Urea with 200 mM EPPS pH 8 followed by digestion with trypsin (1:50: enzyme:protein) for 6 hours at 37° C. Tandem mass tag (TMT) reagents (Thermo Fisher Scientific) were dissolved in anhydrous acetonitrile (ACN) according to manufacturer's instructions. Anhydrous ACN was added to each peptide sample to a final concentration of 30% v/v, and labeling was induced with the addition of TMT reagent to each sample at a ratio of 1:4 peptide:TMT label. The 11-plex labeling reactions were performed for 1.5 hours at room temperature and the reaction quenched by the addition of hydroxylamine to a final concentration of 0.3% for 15 minutes at room temperature. The sample channels were combined at a 1:1 ratio, desalted using C18 solid phase extraction cartridges (Waters®) and analyzed by LC-MS for channel ratio comparison. Samples were then combined using the adjusted volumes determined in the channel ratio analysis and dried down in a speed vacuum. The combined sample was then resuspended in 1% formic acid, and acidified (pH 2-3) before being subjected to desalting with C18 SPE (Sep-Pak®-, Waters®). […] The 96 resulting fractions were then pooled in a non-contiguous manner into 24 fractions and these fractions were used for subsequent mass spectrometry analysis. Data were collected using an Orbitrap FusionTM LumosTM mass spectrometer (Thermo Fisher Scientific, San Jose, CA, USA) coupled with a […] pump (Thermo Fisher Scientific). Peptides were separated on an EasySprayTM ES803.rev2 75 μm inner diameter microcapillary column (ThermoFisher Scientific). Peptides were separated using a 190 min gradient of 6-27% acetonitrile in 1.0% formic acid with a flow rate of 300 nL/min. Each analysis used an MS3-based TMT method as described in McAlister et al., Anal. Chem. 86(14):7150-7158 (2014). The data were acquired using a mass range of m/z 340-1350, resolution 120,000, automatic gain control (AGC) target 1×10^6, maximum injection time 100 ms, dynamic exclusion of 120 seconds for the peptide measurements in the Orbitrap FusionTM LumosTM mass spectrometer. Data dependent MS2 spectra were acquired in the ion trap with a normalized collision energy (NCE) set at 55%, AGC target set to 1.5×10^5 and a maximum injection time of 150 ms. MS3 scans were acquired in the Orbitrap FusionTM LumosTM mass spectrometer with a higher energy collision dissociation (HCD) set to 55%, AGC target set to 1.5×10^5, maximum injection time of 150 ms, resolution at 50,000 and with a maximum synchronous precursor selection (SPS) precursors set to 10. Proteome Discoverer 2.2 (Thermo Fisher Scientific) was used for .RAW file processing and controlling peptide and protein level false discovery rates, assembling proteins from peptides, and protein quantification from peptides. MS/MS spectra were searched against a Swissprot human database (December 2016) with both the forward and reverse sequences. […] TMT reporter ion intensities were measured using a 0.003 Da window around the theoretical m/z for each reporter ion in the MS3 scan. […] Reporter ion intensities were normalized and scaled using in-house scripts in the R framework. Statistical analysis was carried out using the limma package within the R framework as described in Ritchie et al., Nucleic Acids Res. 43(7):e47 (2015).

The next assay has as its target T1, HDAC7 (Homo sapiens, UniProt Q8WUI4).
T1 sequence (Q8WUI4 1-952): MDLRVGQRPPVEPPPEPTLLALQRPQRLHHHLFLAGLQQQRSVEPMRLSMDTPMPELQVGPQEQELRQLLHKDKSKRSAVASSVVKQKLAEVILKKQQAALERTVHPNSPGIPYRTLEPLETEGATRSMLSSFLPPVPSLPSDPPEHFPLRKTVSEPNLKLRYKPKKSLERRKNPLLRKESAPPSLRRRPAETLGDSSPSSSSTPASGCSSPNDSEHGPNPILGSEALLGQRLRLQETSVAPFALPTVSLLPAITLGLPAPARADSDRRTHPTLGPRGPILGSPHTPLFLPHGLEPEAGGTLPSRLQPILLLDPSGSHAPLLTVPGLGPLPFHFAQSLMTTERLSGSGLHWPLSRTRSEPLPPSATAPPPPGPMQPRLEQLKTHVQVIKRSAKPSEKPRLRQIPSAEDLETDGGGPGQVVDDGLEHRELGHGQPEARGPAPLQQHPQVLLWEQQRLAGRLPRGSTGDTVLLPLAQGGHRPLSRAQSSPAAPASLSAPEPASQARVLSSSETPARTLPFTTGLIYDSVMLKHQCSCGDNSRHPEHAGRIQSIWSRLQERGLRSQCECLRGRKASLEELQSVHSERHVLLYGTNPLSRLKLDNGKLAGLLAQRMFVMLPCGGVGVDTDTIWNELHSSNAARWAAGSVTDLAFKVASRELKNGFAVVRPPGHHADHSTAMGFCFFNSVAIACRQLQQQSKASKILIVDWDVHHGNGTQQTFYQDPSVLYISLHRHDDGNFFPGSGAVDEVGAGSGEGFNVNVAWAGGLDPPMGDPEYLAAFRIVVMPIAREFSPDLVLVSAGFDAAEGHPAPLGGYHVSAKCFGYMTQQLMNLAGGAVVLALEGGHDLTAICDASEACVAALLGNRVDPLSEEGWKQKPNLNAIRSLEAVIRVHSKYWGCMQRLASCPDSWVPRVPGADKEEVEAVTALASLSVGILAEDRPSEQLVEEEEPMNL
The assay is described as above. It counts as cell-based. As to conditions: 5-hour treatment, vs DMSO, FIG. 3. Also noted: endogenous in cells; host or cells: Kelly cells. The procedure: as §1

The test system of assay [1] is class IIa HDACs. Described as above. It counts as cell-based, human. As to conditions: 5 hours, vs DMSO, moderated t-test. The procedure: (§2) Cells were washed once with phosphate-buffered saline (PBS), harvested with CellstripperTM (Corning®), washed two additional times with PBS and snap frozen in liquid nitrogen. […] Proteins were precipitated using methanol/chloroform in Donovan et al., Elife 7:e38430 (2018). The precipitated protein was resuspended in 4 M Urea, 50 mM HEPES pH 7.4, followed by dilution to 1 M urea with the addition of 200 mM EPPS, pH 8. Proteins were first digested with LysC (1:50: enzyme:protein) for 12 hours at room temperature. The LysC digestion was diluted to 0.5 M Urea with 200 mM EPPS pH 8 followed by digestion with trypsin (1:50: enzyme:protein) for 6 hours at 37° C. Tandem mass tag (TMT) reagents (Thermo Fisher Scientific) were dissolved in anhydrous acetonitrile (ACN) according to manufacturer's instructions. Anhydrous ACN was added to each peptide sample to a final concentration of 30% v/v, and labeling was induced with the addition of TMT reagent to each sample at a ratio of 1:4 peptide:TMT label. The 11-plex labeling reactions were performed for 1.5 hours at room temperature and the reaction quenched by the addition of hydroxylamine to a final concentration of 0.3% for 15 minutes at room temperature. The sample channels were combined at a 1:1 ratio, desalted using C18 solid phase extraction cartridges (Waters®) and analyzed by LC-MS for channel ratio comparison. Samples were then combined using the adjusted volumes determined in the channel ratio analysis and dried down in a speed vacuum. The combined sample was then resuspended in 1% formic acid, and acidified (pH 2-3) before being subjected to desalting with C18 SPE (Sep-Pak®-, Waters®). […] Proteome Discoverer 2.2 (Thermo Fisher Scientific) was used for .RAW file processing and controlling peptide and protein level false discovery rates, assembling proteins from peptides, and protein quantification from peptides. […] TMT reporter ion intensities were measured using a 0.003 Da window around the theoretical m/z for each reporter ion in the MS3 scan. […]

Assay [2] concerns class IIa HDACs. As to the kind of experiment: Global quantitative proteomics, change in protein abundance in MM.1S cells. It is filed as cell-based, human. The conditions noted are these: 1 μM, 5-hour treatment, vs DMSO, moderated t-test, FIG. 5. The procedure: as §2, with “Tandem mass tag (TMT) reagents (Thermo Fisher Scientific) were dissolved in anhydrous acetonitrile (ACN) according to manufacturer's instructions. Anhydrous ACN was added to each peptide sample to a final concentration of 30% v/v, and labeling was induced with the addition of TMT reagent to each sample at a ratio of 1:4 peptide:TMT label. The 11-plex labeling reactions were performed for 1.5 hours at room temperature and the reaction quenched by the addition of hydroxylamine to a final concentration of 0.3% for 15 minutes at room temperature.” left out, “vacuum.” for “vacuum. The combined sample was then resuspended in 1% formic acid, and acidified (pH 2-3) before being subjected to desalting with C18 SPE (Sep-Pak®-, Waters®).”

Sequence of HDAC5 (Q9UQL6 whole entry): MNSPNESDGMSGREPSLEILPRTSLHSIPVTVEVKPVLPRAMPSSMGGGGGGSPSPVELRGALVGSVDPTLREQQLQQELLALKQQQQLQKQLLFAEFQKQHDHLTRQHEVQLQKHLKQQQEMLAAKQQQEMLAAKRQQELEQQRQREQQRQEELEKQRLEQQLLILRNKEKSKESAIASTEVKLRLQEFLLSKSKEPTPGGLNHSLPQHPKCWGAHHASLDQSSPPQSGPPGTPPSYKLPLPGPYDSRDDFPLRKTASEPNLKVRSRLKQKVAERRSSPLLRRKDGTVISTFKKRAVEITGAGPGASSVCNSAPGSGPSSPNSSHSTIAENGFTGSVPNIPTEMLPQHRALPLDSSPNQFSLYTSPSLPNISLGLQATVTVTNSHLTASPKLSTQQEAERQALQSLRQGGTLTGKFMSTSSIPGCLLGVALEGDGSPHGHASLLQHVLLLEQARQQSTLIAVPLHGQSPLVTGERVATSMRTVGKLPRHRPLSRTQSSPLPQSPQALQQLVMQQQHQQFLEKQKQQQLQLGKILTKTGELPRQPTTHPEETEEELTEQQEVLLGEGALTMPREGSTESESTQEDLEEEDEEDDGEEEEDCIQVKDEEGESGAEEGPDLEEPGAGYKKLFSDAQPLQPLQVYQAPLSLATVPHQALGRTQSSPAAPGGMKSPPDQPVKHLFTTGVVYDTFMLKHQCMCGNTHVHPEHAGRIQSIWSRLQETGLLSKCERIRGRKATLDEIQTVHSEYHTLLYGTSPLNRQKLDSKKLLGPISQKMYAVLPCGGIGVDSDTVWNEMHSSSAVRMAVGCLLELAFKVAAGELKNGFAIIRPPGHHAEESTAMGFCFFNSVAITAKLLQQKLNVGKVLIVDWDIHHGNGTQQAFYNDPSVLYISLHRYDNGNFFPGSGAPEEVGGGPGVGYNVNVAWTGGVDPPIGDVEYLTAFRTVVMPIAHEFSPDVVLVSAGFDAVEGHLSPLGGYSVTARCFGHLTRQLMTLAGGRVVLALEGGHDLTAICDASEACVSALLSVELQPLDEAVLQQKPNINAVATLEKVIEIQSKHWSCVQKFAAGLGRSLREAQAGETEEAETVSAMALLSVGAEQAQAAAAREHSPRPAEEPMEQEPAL

`O=C1CCC(N2C(=O)c3cccc(NCCN4CCC(CNC(=O)c5cccc(-c6noc(C(F)(F)F)n6)c5)(c5nc(-c6ccccc6)cs5)CC4)c3C2=O)C(=O)N1` (stereo not drawn) [Compound 3, N-((1-(2-((2-(2,6-dioxopiperidin-3-yl)-1,3-dioxoisoindolin-4-yl)amino)ethyl)-4-(4-phenylthiazol-2-yl)piperidin-4-yl)methyl)-3-(5-(trifluoromethyl)-1,2,4-oxadiazol-3-yl)benzamide]: at HDAC5, the “protein expression level of HDAC5” value is on record as “reduction in protein expression level”. Moreover, the “protein expression level of HDAC7” value on HDAC7 (5 μM) is “reduction in protein expression level”. For the same compound, the “class IIa HDAC levels (relative protein abundance)” value in the assay with class IIa HDACs [1] (5 μM, FIG. 4A) is on record as “significant reduction”.

Consider `CCN(CCOCCOCCC(=O)N[C@H](C(=O)N1C[C@H](O)C[C@H]1C(=O)N[C@@H](C)c1ccc(-c2scnc2C)cc1)C(C)(C)C)C[C@@H](C)NC(=O)c1ccc(-c2noc(C(F)(F)F)n2)cc1` [Compound 17], for which the “protein expression level of HDAC7” value on HDAC7 (1 μM) is “selective reduction in protein expression level”. The “class IIa HDAC levels (relative protein abundance)” value in the assay on class IIa HDACs [1] (1 μM, FIG. 4B-4C) is “significant reduction”; with class IIa HDACs [2], “significant reduction”.

For the origin of these results see patent US20240246956A1, “CLASS IIA HISTONE DEACETYLASE (HDAC) DEGRADER LIGANDS AND METHODS OF USE THEREOF” (DANA-FARBER CANCER INSTITUTE, INC., priority 2021, published 2024).
